# Results: ChEMBL document CHEMBL1201862, “PubChem BioAssay data set” (2004)
# Calls of active or inactive are those of the source.
# How the values were obtained:
# [1] = cells; assay type: functional, cell-based
# [2] = cells; assay type: functional, cell-based; remark: listed apart in the source
# [3] = target: T1, Cysteine protease ATG4B (Homo sapiens, UniProt Q9Y4P1); assay type: functional;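 also: Fluorescence-based dose-response confirmation assay measuring inhibition of ATG4B activity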
# T1 sequence (Q9Y4P1 whole entry): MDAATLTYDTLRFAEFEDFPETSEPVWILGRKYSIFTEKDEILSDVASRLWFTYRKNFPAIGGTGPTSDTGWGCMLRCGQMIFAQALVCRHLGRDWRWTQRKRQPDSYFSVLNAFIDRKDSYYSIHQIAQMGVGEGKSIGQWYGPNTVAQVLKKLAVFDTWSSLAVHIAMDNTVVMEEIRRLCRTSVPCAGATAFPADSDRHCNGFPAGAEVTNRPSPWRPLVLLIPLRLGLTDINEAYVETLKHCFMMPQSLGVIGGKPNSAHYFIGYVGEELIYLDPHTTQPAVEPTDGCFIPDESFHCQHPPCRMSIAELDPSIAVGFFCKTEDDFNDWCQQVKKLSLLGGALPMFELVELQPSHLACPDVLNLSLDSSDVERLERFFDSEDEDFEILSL
# [4] = target: Phospholipase A2 (Homo sapiens, UniProt P04054); assay type: functional;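 also: confirmatory dose-response counterscreen on phospholipase A2, testing hits that came from an ultra-high-throughput screen for ATG4B inhibitors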
# [5] = target: T2, High affinity choline transporter 1 (Homo sapiens, UniProt Q9GZV3); assay: CHT inhibitors, dose response, cell-based, 5-point CRC, membrane potential dye (AID 504840); assay type: functional
# T2 sequence (Q9GZV3 whole entry): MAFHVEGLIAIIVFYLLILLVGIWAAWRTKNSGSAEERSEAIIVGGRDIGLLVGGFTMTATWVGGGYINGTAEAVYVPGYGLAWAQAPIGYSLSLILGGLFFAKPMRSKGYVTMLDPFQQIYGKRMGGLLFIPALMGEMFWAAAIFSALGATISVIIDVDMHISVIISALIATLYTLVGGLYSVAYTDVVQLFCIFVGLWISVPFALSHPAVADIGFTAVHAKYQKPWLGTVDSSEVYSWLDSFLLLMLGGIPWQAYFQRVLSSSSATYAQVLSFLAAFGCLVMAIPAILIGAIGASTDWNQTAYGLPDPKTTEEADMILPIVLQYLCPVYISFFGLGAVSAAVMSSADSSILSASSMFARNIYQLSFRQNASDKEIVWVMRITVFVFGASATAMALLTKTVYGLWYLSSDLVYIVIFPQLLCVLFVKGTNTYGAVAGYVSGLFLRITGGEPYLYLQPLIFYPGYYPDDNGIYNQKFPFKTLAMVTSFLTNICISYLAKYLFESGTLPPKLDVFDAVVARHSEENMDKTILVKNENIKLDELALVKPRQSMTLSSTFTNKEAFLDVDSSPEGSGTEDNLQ
# [6] = target: T2, High affinity choline transporter 1; assay: CHT inhibitors, dose response, cell-based, 10-point CRC, membrane potential dye (AID 588401); assay type: functional;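 also: membrane potential dye fluorescence of choline-evoked depolarization via CHT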
# [7] = target: Fructose-bisphosphate aldolase (Mycobacterium tuberculosis, UniProt P9WQA3); assay: Fluorescence-based biochemical high throughput dose response assay for inhibitors of the fructose-bisphosphate aldolase (FBA) of M. tuberculosis.; assay type: functional
# [8] = target: 5-hydroxytryptamine receptor 2A (Mus musculus, UniProt P35363); assay type: functional, cell-based;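 also: CHO-K1 cells with tagged receptor and beta-arrestin; agonist potency measured as compound-induced activation of the receptor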
# [9] = target: Mu-type opioid receptor (Homo sapiens, UniProt P35372); assay type: functional, cell-based;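 also: U2OS cells with beta-arrestin recruitment to OPRM1 by beta-gal complementation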
# [10] = AlphaScreen signal interference compounds, dose response, artefact control for ARNT-TACC3 interaction inhibitor project, biochemical, luminescence, cherry-pick (AID 651705); assay type: functional;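 also: AlphaScreen bead proximity signal that flags compounds interfering with the detection technology; potency reflects signal decrease which marks the compound as an assay artifact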
# [11] = ARNT/TACC3 interaction disruptors, potency, confirmation, biochemical, AlphaScreen, cherry-picked samples (AID 651703); assay type: functional, Homo sapiens;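 also: His-tagged ARNT PAS-B domain paired with GST-TACC3 E629A dimer coactivator fragment; potency of inhibitors that break up the complex and lower AlphaScreen signal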
# [12] = target: Adenosylmethionine-8-amino-7-oxononanoate aminotransferase (Mycobacterium tuberculosis, UniProt P9WQ81); assay: Mycobacterium tuberculosis BioA enzyme inhibitor Measured in Biochemical System Using Plate Reader - 2163-02_Inhibitor_Dose_CherryPick_Activity.; assay type: functional, Mycobacterium tuberculosis UT205
# [13] = StAR promoter reporter inhibition counter-screen, dose response, counter-screen for LRH-1 inverse agonist project, cell-based, luminescence, luciferase reporter (AID 651969); assay type: functional
# [14] = target: Steroidogenic factor 1 (Homo sapiens, UniProt Q13285); assay: Counterscreen for inverse agonists of the liver receptor homolog-1 (LRH-1; NR5A2): Luminescence-based cell-based high throughput dose response assay to identify inverse agonists of the Steroidogenic Factor 1 Nuclear Receptor (SF1; NR5A1).; assay type: functional
# [15] = target: Nuclear receptor subfamily 5 group A member 2 (Homo sapiens, UniProt O00482); assay type: functional, cell-based;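 also: HEK293T cells transfected with LRH-1 and a StAR promoter luciferase reporter; potency for inhibitors that lower LRH-1 driven reporter light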
# [16] = target: T3, Streptokinase A (Streptococcus pyogenes serotype M1, UniProt P10520); assay: S. pyogenes streptokinase expression inhibitors, potency, dose response, plasminogen activation absorbance, OD405 (AID 1914); assay type: functional, Streptococcus pyogenes M1 GAS;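 also: secreted streptokinase activity via plasminogen activation per viability signal from cell pellet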
# T3 sequence (P10520 whole entry): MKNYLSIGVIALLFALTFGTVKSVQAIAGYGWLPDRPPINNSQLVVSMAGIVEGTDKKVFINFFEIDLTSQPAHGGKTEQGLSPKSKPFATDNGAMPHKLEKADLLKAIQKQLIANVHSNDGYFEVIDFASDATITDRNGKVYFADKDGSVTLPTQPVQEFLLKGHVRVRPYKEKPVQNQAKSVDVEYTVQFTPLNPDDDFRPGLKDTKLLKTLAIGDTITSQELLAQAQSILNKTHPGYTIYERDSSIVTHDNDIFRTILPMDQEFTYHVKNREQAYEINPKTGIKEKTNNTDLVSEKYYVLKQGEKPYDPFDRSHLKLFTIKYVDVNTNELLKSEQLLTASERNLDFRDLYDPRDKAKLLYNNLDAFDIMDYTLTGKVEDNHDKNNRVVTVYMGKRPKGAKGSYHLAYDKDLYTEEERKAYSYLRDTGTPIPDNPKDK
# [17] = microbe, parasite or virus in culture; assay type: functional; conditions: Mycobacterium tuberculosis
# [18] = system: Streptococcus sp. 'group A'; assay: growth inhibition of control SK(-) GAS strain, dose response, counter-screen for streptokinase expression inhibitor project, luminescence, kanamycin, BacTiterGlo, confirmation (AID 1900); assay type: functional, organism-based
# [19] = system: Streptococcus; assay: Group A Streptococcus viability loss, dose response, counter-screen for streptokinase expression inhibitor project, luminescence, BacTiterGlo (AID 1915); assay type: functional, organism-based;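 also: potency for reduction of bacterial viability or growth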
# [20] = cells; assay type: functional
# [21] = HEp-2 cell cytotoxicity, dose response, cytotoxicity control for RSV inhibitor project, HTS (AID 2410); assay type: functional; conditions: human respiratory syncytial virus
# [22] = system: Vero; assay: cells; assay type: functional; conditions: Chlorocebus sabaeus
# [23] = target: Eukaryotic translation initiation factor 4E (Mus musculus, UniProt P63073); assay: eIF4E–eIF4G protein interaction inhibitors, dose response, biochemical, TR-FRET (AID 855); assay type: functional;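 also: potency for disrupting eIF4E binding to eIF4GI seen as loss of FRET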
# Sequence of Eukaryotic translation initiation factor 4E (P63073 whole entry): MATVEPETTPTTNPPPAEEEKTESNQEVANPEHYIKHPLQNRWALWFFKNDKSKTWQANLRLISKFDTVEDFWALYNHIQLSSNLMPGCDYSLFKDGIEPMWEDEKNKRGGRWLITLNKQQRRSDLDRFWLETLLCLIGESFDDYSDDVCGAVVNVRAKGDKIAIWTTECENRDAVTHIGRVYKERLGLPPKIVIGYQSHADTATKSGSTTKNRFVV
# Sequence of Fructose-bisphosphate aldolase (P9WQA3 whole entry): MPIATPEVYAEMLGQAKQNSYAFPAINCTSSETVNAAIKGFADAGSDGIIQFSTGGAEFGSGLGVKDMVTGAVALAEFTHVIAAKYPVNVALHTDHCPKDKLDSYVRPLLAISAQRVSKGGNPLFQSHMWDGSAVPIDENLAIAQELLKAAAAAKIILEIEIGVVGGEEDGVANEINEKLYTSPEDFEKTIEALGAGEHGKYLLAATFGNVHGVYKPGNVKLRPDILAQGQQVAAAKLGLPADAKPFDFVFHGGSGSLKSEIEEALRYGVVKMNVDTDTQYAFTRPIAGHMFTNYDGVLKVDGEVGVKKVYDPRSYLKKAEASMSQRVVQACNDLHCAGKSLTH
# Sequence of Phospholipase A2 (P04054 whole entry): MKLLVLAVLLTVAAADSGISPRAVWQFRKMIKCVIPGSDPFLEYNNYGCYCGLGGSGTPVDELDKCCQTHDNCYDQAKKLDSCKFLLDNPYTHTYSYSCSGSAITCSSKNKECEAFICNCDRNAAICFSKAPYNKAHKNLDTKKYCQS
# Sequence of Steroidogenic factor 1 (Q13285 whole entry): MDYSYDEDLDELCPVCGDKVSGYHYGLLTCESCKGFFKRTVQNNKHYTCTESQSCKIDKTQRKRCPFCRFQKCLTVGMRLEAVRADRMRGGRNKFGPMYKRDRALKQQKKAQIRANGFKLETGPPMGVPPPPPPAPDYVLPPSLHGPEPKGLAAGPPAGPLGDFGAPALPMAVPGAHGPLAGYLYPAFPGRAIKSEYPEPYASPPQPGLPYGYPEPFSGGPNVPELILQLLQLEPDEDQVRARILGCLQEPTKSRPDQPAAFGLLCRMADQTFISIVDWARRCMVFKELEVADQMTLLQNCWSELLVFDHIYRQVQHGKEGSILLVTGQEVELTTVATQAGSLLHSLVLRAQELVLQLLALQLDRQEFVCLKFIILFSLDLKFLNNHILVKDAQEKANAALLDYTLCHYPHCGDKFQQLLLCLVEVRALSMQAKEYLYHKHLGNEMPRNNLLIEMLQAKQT
# Sequence of Mu-type opioid receptor (P35372 whole entry): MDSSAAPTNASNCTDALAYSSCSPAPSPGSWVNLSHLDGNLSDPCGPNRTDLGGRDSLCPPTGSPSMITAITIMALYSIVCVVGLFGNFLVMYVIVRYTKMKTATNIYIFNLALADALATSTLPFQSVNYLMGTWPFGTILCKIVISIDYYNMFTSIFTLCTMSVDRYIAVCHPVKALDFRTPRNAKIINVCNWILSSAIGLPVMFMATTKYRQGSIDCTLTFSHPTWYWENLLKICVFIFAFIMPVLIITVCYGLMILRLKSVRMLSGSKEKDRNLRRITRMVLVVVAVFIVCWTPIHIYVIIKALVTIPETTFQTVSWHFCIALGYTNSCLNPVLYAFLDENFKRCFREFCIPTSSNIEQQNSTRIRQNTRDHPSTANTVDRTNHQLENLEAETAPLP
# Sequence of Adenosylmethionine-8-amino-7-oxononanoate aminotransferase (P9WQ81 whole entry): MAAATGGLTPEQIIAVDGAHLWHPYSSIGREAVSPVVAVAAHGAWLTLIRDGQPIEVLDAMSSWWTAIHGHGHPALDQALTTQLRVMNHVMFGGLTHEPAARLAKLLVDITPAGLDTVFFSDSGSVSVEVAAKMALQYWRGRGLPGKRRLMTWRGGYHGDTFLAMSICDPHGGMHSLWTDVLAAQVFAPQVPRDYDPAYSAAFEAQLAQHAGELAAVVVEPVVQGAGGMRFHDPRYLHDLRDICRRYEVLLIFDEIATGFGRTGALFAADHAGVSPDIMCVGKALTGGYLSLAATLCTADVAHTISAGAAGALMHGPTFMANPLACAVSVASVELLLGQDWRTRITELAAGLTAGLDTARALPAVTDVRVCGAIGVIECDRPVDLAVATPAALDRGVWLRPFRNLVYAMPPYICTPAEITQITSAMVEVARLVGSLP
# Sequence of Nuclear receptor subfamily 5 group A member 2 (O00482 whole entry): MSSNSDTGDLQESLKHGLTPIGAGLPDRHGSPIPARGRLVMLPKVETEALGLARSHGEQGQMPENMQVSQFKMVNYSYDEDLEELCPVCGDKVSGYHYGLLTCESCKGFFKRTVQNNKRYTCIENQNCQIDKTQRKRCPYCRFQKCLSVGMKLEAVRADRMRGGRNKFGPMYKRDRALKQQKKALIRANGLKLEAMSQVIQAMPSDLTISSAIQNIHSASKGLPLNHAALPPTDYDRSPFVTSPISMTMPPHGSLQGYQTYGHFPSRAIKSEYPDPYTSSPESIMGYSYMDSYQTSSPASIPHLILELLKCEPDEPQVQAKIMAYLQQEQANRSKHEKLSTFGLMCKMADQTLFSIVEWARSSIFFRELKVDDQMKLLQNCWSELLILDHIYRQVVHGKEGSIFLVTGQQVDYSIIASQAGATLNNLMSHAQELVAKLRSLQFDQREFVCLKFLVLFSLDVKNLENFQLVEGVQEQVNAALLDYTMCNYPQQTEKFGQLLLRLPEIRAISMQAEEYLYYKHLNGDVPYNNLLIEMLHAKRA
# Sequence of 5-hydroxytryptamine receptor 2A (P35363 whole entry): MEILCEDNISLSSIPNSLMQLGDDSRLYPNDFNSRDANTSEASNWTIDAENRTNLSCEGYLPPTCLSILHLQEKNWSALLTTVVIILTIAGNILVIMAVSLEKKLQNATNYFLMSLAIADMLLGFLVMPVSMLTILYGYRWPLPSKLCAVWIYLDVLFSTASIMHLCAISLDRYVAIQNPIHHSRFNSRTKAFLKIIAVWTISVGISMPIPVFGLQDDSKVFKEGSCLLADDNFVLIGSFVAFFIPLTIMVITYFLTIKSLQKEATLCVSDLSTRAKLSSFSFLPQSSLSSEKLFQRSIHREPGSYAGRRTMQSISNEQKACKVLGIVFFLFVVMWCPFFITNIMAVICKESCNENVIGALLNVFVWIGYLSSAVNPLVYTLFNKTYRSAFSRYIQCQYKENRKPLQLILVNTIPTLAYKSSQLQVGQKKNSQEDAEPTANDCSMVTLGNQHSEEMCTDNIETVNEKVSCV
smiles,measurement,setting,value
O=C(O)C1CC=C(Cl)CC1C(=O)NCC1OCCc2ccccc21 (centres undefined),IC50,[1],> 29.9 µM (inactive)
same,EC50,[2],> 29.9 µM (inactive)
Cc1noc(C)c1COc1ccc(C(=O)OCC(=O)NCc2ccccc2Cl)cc1,IC50,[3],22.5 µM (inactive)
same,IC50,[4],6.59 µM (active)
O=[N+]([O-])c1ccc(Sc2ncc3ccccn23)nc1,IC50,[5],3.9 µM (active)
same,IC50,[6],1.13 µM (active)
O=C(NC1CCCCC1)c1ccc2[nH]c(=O)c(=O)[nH]c2c1,IC50,[7],2.36 µM (active)
C1=CC2CC1CC2CN1CCN(c2ccccc2)CC1 (centres undefined),EC50,[8],76.1 µM (inactive)
same,EC50,[9],92.5 µM (inactive)
COc1ccccc1NC(=O)CSc1ccc2nnc(-c3cccnc3)n2n1,AC50,[10],127 µM (active)
same,AC50,[11],118 µM (active)
C[C@@H](C(=O)N1CCN(Cc2ccc3c(c2)OCO3)CC1)n1nnc2ccccc2c1=O,AC50,[12],4.11 µM (active)
COc1cc(NC(=O)Cn2ccsc2=N)c(C)cc1[N+](=O)[O-],IC50,[13],35.9 µM (inactive)
same,IC50,[14],25.3 µM (inactive)
same,IC50,[15],35.9 µM (inactive)
Cc1c(Cl)cccc1-c1ccc(CNCc2ccccn2)o1,EC50,[16],> 150 µM (not active)
same,AC50,[10],87.3 µM (active)
same,CC50,[17],> 40 µM (active)
same,EC50,[18],13 µM (active)
same,EC50,[19],70.2 µM (active)
same,IC50,[20],0.55 µM (active)
Cc1cc(=O)oc2cc(OCCc3ccccc3)ccc12,CC50,[21],35.1 µM (active)
same,IC50,[7],1.35 µM (active)
same,CC50,[22],> 25 µM (active)
O=c1[nH]ncc(N2CCCC2)c1Cl,IC50,[5],8.71 µM (active)
same,IC50,[6],7.51 µM (active)
same,IC50,[23],50 µM (inactive)
NC(=O)/C(=C\c1ccccc1)NC(=O)/C=C/c1ccccc1,IC50,[3],19.1 µM (active)
same,IC50,[4],15.5 µM (active)
